Source: PubChem BioAssay AID2060495 (Molecular Pharmacology Branch, DTP, NCI, 2025)

Test system: 521955-158-R2-J5-PDC complex spheroid viability
Experiment: Anticancer human tumor 521955-158-R2-J5-PDC patient-derived pancreatic carcinoma cell line growth inhibition [GQUAD]
Conditions: for IC50: curve of first compound; for viability, T/C: stronger effect = lower value
From the text: DNA G-quadruplex Stabilizer Agents in Combinations in Complex Spheroids
A high-throughput screen of multi-cell type tumor spheroids was designed to identify active combinations of DNA G-quadruplex stabilizer agents and targeted small molecules. Complex spheroids include a stromal component modeled by human endothelial cells (HUVEC) and fibroblasts modeled by human mesenchymal stem cells (MSCs). The concentration ranges selected for each drug and investigational agent were based upon clinically achievable concentrations if the clinical Cmax of the agent was known.
Compounds. The drugs and investigational agents: pidnarulex (CX-5461; NSC782164), APTO-253 (NSC789042), BRACO-19 (NSC847499), peposertib (NSC802822), ceralasertib (NSC780249), elimusertib (NSC800525), camonsertib (NSC841442), AZD-1390 (NSC803789), olaparib (NSC753686), talazoparib (NSC767125), ART-558 (NSC835418), sotorasib (NSC818433), MRTX-1133 (NSC836407), SN-38 (NSC673596), topotecan (NSC609699), etoposide (NSC141540), doxorubicin (NSC123127), gemcitabine (NSC613327), 5-fluorouracil (NSC19893), paclitaxel (NSC125973), vemurafenib (NSC761431), panobinostat (NSC761190), R-306465 (JNJ-16241199; NSC773264), adavosertib (NSC754352), TP-3654 (NSC805149), carboplatin (NSC241240), KSQ-4279 (NSC840948), and staurosporine (NSC755774) were obtained from the National Cancer Institute (NCI) Developmental Therapeutics Program Chemical Repository (34). The FDA-approved anticancer drug set is available from the NCI Developmental Therapeutics Program. […] The stock solutions were prepared in dimethyl sulfoxide (DMSO, Sigma-Aldrich, St. Louis, MO, cat. D2650) at 800-fold the tested concentration and stored at -70 degrees C prior to their use. All drugs and investigational agents were tested over a range starting from a high concentration at or near the clinical Cmax and decreasing in half-log increments. If the clinical Cmax for an agent had not been determined, the highest concentration tested was 10 microM.
2.3 Cell Culture. All cells were maintained in an incubator at 37 degrees C and 5% CO2 with 95% humidity. The PDC lines were cultured according to standard operating procedures established by the NCI PDMR. All PDCs were thawed and cultured in Matrigel-coated flasks prepared with a working solution of 1X Ham's F-12 nutrient mix, without supplementation (Invitrogen, cat. 11765054), 100 U/mL penicillin-streptomycin (Invitrogen, cat. 15140122), and 2.5% Matrigel (Corning Inc., cat. 354248) for the first three passages. The 857933-349-R-J2-PDC line was cultured in 6C/Colon 1B media, which includes advanced DMEM/F-12 (Thermo Fisher Scientific, cat. 12634028), 10 mM HEPES (Thermo Fisher Scientific, cat. 15630080), 1X GlutaMAX supplement (Thermo Fisher Scientific, cat. 35050061), 0.1 mg/mL primocin (InvivoGen, cat. ant-pm-2), 10% defined fetal bovine serum, heat inactivated (HyClone Laboratories Inc., cat. SH30070.03HI), 50% L-WRN conditioned media (ATCC, cat. CRL-3276), 1.25 mM N-Acetyl-L-cysteine (Sigma-Aldrich, cat. A9165), 10 mM nicotinamide (Sigma-Aldrich, cat. N0636), 1X B-27 supplement (Thermo Fisher Scientific, cat. 17504044), 1X N-2 supplement (Thermo Fisher Scientific, cat. 17502048), 10 microM Y-27632 dihydrochloride (Tocris Bioscience, cat. 1254), and 50 ng/mL human EGF recombinant protein (Thermo Fisher Scientific, cat. PHG0311). The 485176-168-R4-J1-PDC line was cultured in Panc media, which includes all 6C/Colon 1B media components plus 100 ng/mL human FGF-10 (Thermo Fisher Scientific, cat. 100-26), 500 nM SB-431542 (Selleckchem, cat. S1067), and gastrin (Tocris, cat. 3006).
[…]

[1] = second compound 0.0316 µM, first compound 0.0316 µM
[2] = second compound 0.0316 µM, first compound 0.1 µM
[3] = second compound 0.0316 µM, first compound 0.316 µM
[4] = second compound 0.0316 µM, first compound 1 µM
[5] = second compound 0.0316 µM, first compound 3.16 µM
[6] = second compound 0.0316 µM, first compound 10 µM
[7] = second compound 0.1 µM, first compound 0.0316 µM
[8] = second compound 0.1 µM, first compound 0.1 µM
[9] = second compound 0.1 µM, first compound 0.316 µM
[10] = second compound 0.1 µM, first compound 1 µM
[11] = second compound 0.1 µM, first compound 3.16 µM
[12] = second compound 0.1 µM, first compound 10 µM
[13] = second compound 0.316 µM, first compound 0.0316 µM
[14] = second compound 0.316 µM, first compound 0.1 µM
[15] = second compound 0.316 µM, first compound 0.316 µM
[16] = second compound 0.316 µM, first compound 1 µM
[17] = second compound 0.316 µM, first compound 3.16 µM
[18] = second compound 0.316 µM, first compound 10 µM
[19] = second compound 1 µM, first compound 0.0316 µM
[20] = second compound 1 µM, first compound 0.1 µM
[21] = second compound 1 µM, first compound 0.316 µM
[22] = second compound 1 µM, first compound 1 µM
[23] = second compound 1 µM, first compound 3.16 µM
[24] = second compound 1 µM, first compound 10 µM
[25] = second compound 3.16 µM, first compound 0.0316 µM
[26] = second compound 3.16 µM, first compound 0.1 µM
[27] = second compound 3.16 µM, first compound 0.316 µM
[28] = second compound 3.16 µM, first compound 1 µM
[29] = second compound 3.16 µM, first compound 3.16 µM
[30] = second compound 3.16 µM, first compound 10 µM
[31] = second compound 10 µM, first compound 0.0316 µM
[32] = second compound 10 µM, first compound 0.1 µM
[33] = second compound 10 µM, first compound 0.316 µM
[34] = second compound 10 µM, first compound 1 µM
[35] = second compound 10 µM, first compound 3.16 µM
[36] = second compound 10 µM, first compound 10 µM
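Note: spheroids exposed to agents for one week before reading.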
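Throughout, for viability, T/C: 100% = DMSO vehicle control viability.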

CC1COCCN1c1cc(C2(S(C)(=N)=O)CC2)nc(-c2ccnc3[nH]ccc23)n1 (stereo unspecified) + CN(C)c1ccc(Nc2c3ccc(NC(=O)CCN4CCCC4)cc3nc3cc(NC(=O)CCN4CCCC4)ccc23)cc1
IC50 (second compound 0.0316 µM): 879 nM | IC50 (second compound 0.1 µM): 832 nM | IC50 (second compound 0.316 µM): 1020 nM | IC50 (second compound 1 µM): 850 nM | IC50 (second compound 3.16 µM): 1330 nM | IC50 (second compound 10 µM): 1380 nM | viability, T/C [1]: 99.7% | viability, T/C [2]: 93.1% | viability, T/C [3]: 98% | viability, T/C [4]: 44.1% | viability, T/C [5]: 16.2% | viability, T/C [6]: 17.2% | viability, T/C [7]: 104% | viability, T/C [8]: 112% | viability, T/C [9]: 117% | viability, T/C [10]: 38.4% | viability, T/C [11]: 17.5% | viability, T/C [12]: 16.8% | viability, T/C [13]: 97.1% | viability, T/C [14]: 99.2% | viability, T/C [15]: 99% | viability, T/C [16]: 50.6% | viability, T/C [17]: 12.9% | viability, T/C [18]: 13.7% | viability, T/C [19]: 99.3% | viability, T/C [20]: 93.8% | viability, T/C [21]: 91.5% | viability, T/C [22]: 43.3% | viability, T/C [23]: 14.8% | viability, T/C [24]: 14.5% | viability, T/C [25]: 86.4% | viability, T/C [26]: 78.4% | viability, T/C [27]: 89.2% | viability, T/C [28]: 61.5% | viability, T/C [29]: 15.8% | viability, T/C [30]: 14.8% | viability, T/C [31]: 61% | viability, T/C [32]: 76.7% | viability, T/C [33]: 69.1% | viability, T/C [34]: 58.9% | viability, T/C [35]: 26.9% | viability, T/C [36]: 20.5%

COc1ccc([C@@H](O)c2cc(-c3ncnc4cc(N5CCOCC5)ccc34)c(F)cc2Cl)nn1 + CN(C)c1ccc(Nc2c3ccc(NC(=O)CCN4CCCC4)cc3nc3cc(NC(=O)CCN4CCCC4)ccc23)cc1
IC50 (second compound 0.0316 µM): 7260 nM | IC50 (second compound 0.1 µM): 5610 nM | IC50 (second compound 0.316 µM): 6450 nM | IC50 (second compound 1 µM): 5520 nM | IC50 (second compound 3.16 µM): 2500 nM | IC50 (second compound 10 µM): 2000 nM | viability, T/C [1]: 91.8% | viability, T/C [2]: 107% | viability, T/C [3]: 91.8% | viability, T/C [4]: 78.9% | viability, T/C [5]: 68.3% | viability, T/C [6]: 43.3% | viability, T/C [7]: 94.2% | viability, T/C [8]: 96.8% | viability, T/C [9]: 92.3% | viability, T/C [10]: 83.9% | viability, T/C [11]: 60% | viability, T/C [12]: 39.9% | viability, T/C [13]: 88.9% | viability, T/C [14]: 105% | viability, T/C [15]: 106% | viability, T/C [16]: 77.8% | viability, T/C [17]: 66.5% | viability, T/C [18]: 41% | viability, T/C [19]: 87.4% | viability, T/C [20]: 101% | viability, T/C [21]: 83% | viability, T/C [22]: 72.4% | viability, T/C [23]: 59.2% | viability, T/C [24]: 41.5% | viability, T/C [25]: 66.4% | viability, T/C [26]: 83.1% | viability, T/C [27]: 74.9% | viability, T/C [28]: 73.7% | viability, T/C [29]: 44% | viability, T/C [30]: 28.8% | viability, T/C [31]: 59.8% | viability, T/C [32]: 55.6% | viability, T/C [33]: 71.3% | viability, T/C [34]: 54.9% | viability, T/C [35]: 45.1% | viability, T/C [36]: 16.7%

O=C(c1cc(Cc2n[nH]c(=O)c3ccccc23)ccc1F)N1CCN(C(=O)C2CC2)CC1 + CN(C)c1ccc(Nc2c3ccc(NC(=O)CCN4CCCC4)cc3nc3cc(NC(=O)CCN4CCCC4)ccc23)cc1
IC50 (second compound 0.0316 µM): > 10000 nM | IC50 (second compound 0.1 µM): > 10000 nM | IC50 (second compound 0.316 µM): > 10000 nM | IC50 (second compound 1 µM): > 10000 nM | IC50 (second compound 3.16 µM): > 10000 nM | IC50 (second compound 10 µM): > 10000 nM | viability, T/C [1]: 93.1% | viability, T/C [2]: 85.2% | viability, T/C [3]: 94% | viability, T/C [4]: 83.5% | viability, T/C [5]: 97.1% | viability, T/C [6]: 85.5% | viability, T/C [7]: 94.4% | viability, T/C [8]: 89.4% | viability, T/C [9]: 97.5% | viability, T/C [10]: 86.6% | viability, T/C [11]: 88.3% | viability, T/C [12]: 71.9% | viability, T/C [13]: 93% | viability, T/C [14]: 90.9% | viability, T/C [15]: 91% | viability, T/C [16]: 85.4% | viability, T/C [17]: 92.6% | viability, T/C [18]: 84.1% | viability, T/C [19]: 90% | viability, T/C [20]: 82.7% | viability, T/C [21]: 92.3% | viability, T/C [22]: 84.5% | viability, T/C [23]: 102% | viability, T/C [24]: 72.8% | viability, T/C [25]: 75.4% | viability, T/C [26]: 90.5% | viability, T/C [27]: 67.1% | viability, T/C [28]: 77.4% | viability, T/C [29]: 80% | viability, T/C [30]: 71.5% | viability, T/C [31]: 57% | viability, T/C [32]: 64.5% | viability, T/C [33]: 68.7% | viability, T/C [34]: 56.5% | viability, T/C [35]: 48.7% | viability, T/C [36]: 63%
